According to PMC11188089, “Structural basis for antibiotic transport and inhibition in PepT2, the mammalian proton-coupled peptide transporter” (Research Square, 2024):
Where two headings read alike, the source gives them in different places. Where a SMILES comes first, the peptide text is derived from it.

Columns and labels:
PepT2 [1] = molecular target: T1, PepT2 (Rattus norvegicus, UniProt Q63424); parameters: gene Slc15a2
T1 sequence (Q63424 1-729): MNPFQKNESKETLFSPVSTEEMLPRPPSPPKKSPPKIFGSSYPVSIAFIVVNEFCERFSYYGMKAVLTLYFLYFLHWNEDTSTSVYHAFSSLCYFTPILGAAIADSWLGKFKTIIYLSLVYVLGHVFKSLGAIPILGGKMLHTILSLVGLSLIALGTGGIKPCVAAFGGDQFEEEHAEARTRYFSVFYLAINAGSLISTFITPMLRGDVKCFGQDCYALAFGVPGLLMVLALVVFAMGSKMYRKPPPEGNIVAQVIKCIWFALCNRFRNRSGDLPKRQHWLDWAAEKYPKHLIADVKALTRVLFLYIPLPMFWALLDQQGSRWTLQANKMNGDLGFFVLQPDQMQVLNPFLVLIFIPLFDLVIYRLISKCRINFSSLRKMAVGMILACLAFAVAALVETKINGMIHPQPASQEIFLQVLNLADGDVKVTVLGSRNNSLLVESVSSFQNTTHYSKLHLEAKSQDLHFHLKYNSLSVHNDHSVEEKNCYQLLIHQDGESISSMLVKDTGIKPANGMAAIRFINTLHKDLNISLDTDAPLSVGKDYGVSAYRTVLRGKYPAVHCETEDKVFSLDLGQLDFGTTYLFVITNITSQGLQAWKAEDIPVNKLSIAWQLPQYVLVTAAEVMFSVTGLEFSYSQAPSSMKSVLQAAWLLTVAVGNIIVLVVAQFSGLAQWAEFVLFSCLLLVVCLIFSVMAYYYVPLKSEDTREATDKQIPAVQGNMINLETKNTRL

PepT2 [2] = molecular target: T1, PepT2; experiment: inhibition of ^3H di-alanine uptake in PepT2 proteoliposomes; counterflow; SSM electrophysiology; type: biochemical; parameters: gene Slc15a2; purified rat PepT2 reconstituted into liposomes
[3] = molecular target: Rattus norvegicus PepT2 (SLC15A2), proton-coupled peptide transporter (Rattus norvegicus) (UniProt Q63424)
[4] = molecular target: T2, Rattus norvegicus PepT2 (SLC15A2), proton-coupled peptide transporter (Rattus norvegicus, UniProt Q63424); experiment: cryo-EM structure; PepT2 after SEC (5-6 mg/ml, DDM:CHS) mixed with 1 mM antibiotic (cefadroxil, amoxicillin or cloxacillin) for one hour, then 1.2 molar excess of nanobody D8, on ice for at least 30 minutes; details: both partners purified
T2 construct: PepT2 (SLC15A2) from Rattus norvegicus; The extracellular domain (ECD) was in the protein but was not built in the deposited models; For the IC50 assay the same purified protein was reconstituted into POPE:POPG liposomes; The Addgene ids 167988 and 167989 are assigned to PepT2 and the nanobody by the order in the sentence; also called rat PepT2; RnPepT2; not shown: GFP, C-terminal, cleaved; His …

Nc1nc(/C(=C/CC(=O)O)C(=O)N[C@@H]2C(=O)N3C(C(=O)O)=CCS[C@H]23)cs1 [ceftibuten]
IC50 (PepT2 [1]): 1000 µM

C[C@H](N)C(=O)N[C@@H](C)C(=O)O [di-alanine] (H-Ala-Ala-OH)
IC50 (PepT2 [2]): 32 µM

di-alanine peptide
IC50 for inhibition of the uptake of radioactive (3H) di-alanine into rat PepT2 proteoliposomes [3]: 32 µM

B1: nanobody D8 (inhibitory nanobody against rat PepT2) (VHH)
VHH: QVQLVESGGGLVQPGGSLRLLCVASGRPFNDYDMGWFRQAPGKEREFVASISWSGRVTDYSDSMKGRCTVSRDNAKGTMFLQMSNLVPRDTAVYYCAAARRRWTFKATNTEEFYETWGQGTQVTVSS
notes: the nanobody was resolved in the structures solved here (PDB 9BIR, 9BIS, 9BIT, 9BIU); expression plasmid in Addgene; also called the nanobody
binding result [4]: binds
